Data published in BindingDB's records for doi:10.7270/Q2M32T6M (Vanderbilt Screening Center for GPCRs, Ion Channels and …, 2009).

What follows are compounds tested against T1, Solute carrier family 12 member 5 (Homo sapiens, UniProt Q9H2X9) (assay: concentration-response of KCC2 transport modulators – cell-based, HEK293 KCC2, FluoZin-2 fluorescence, dose response (AID 1736)). Details: not given.
T1 sequence (Q9H2X9 whole entry): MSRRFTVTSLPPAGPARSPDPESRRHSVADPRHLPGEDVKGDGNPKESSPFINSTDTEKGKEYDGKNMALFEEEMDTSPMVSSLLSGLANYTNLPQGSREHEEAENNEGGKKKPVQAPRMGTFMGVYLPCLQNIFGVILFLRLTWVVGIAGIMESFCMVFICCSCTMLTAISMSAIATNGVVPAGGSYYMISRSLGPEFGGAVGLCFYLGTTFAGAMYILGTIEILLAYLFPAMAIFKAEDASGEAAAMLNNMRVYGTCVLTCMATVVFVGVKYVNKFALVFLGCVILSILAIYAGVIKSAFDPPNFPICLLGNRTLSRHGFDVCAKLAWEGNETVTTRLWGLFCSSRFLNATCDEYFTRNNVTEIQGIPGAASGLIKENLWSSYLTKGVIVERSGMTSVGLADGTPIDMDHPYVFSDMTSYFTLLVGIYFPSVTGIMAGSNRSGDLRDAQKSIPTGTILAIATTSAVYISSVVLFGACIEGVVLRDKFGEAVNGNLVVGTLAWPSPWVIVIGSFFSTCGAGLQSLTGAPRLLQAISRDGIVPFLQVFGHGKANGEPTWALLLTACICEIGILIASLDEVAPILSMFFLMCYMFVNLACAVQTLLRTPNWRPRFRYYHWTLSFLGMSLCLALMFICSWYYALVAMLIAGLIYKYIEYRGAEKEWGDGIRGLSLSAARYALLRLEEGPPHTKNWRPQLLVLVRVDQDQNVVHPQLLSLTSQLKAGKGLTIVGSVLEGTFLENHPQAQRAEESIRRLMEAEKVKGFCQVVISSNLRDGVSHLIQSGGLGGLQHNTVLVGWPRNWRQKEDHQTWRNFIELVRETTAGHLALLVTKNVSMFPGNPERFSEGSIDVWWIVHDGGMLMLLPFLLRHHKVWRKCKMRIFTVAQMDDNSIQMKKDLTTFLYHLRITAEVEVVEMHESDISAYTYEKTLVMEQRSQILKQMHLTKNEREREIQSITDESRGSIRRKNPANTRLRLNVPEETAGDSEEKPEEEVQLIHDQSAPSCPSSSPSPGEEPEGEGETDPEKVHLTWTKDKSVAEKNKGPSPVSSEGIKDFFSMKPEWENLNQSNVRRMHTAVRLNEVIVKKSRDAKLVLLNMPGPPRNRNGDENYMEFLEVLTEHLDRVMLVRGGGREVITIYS

SMILES	EC50 [µM]
S=C(NCCc1ccccc1)NN=Cc1cccc(Cl)c1Cl [1-[(2,3-dichlorobenzylidene)amino]-3-phenethyl-thiourea]	22.7
CC1CCN(C(=O)c2ccc(SCc3ccccc3F)c([N+](=O)[O-])c2)CC1 [1-{4-[(2-fluorobenzyl)thio]-3-nitrobenzoyl}-4-methylpiperidine]	42.6
O=C(NC(=S)Nc1nc(-c2cccc([N+](=O)[O-])c2)cs1)c1cc(Cl)ccc1Cl [2,5-bis(chloranyl)-N-[[4-(3-nitrophenyl)-1,3-thiazol-2-yl]carbamothioyl]benzamide]	10.8
Cn1c(CSc2nc3ccccc3s2)nc2ccccc21 [2-(1-Methyl-1H-benzoimidazol-2-ylmethylsulfanyl)-benzothiazole]	439
N#Cc1nc(-c2ccco2)oc1N1CCN(Cc2ccccc2)CC1 [2-(2-furanyl)-5-[4-(phenylmethyl)-1-piperazinyl]-4-oxazolecarbonitrile]	12
O=C(COC(=O)c1cc([N+](=O)[O-])ccc1NCCO)c1ccccc1 [2-(2-hydroxyethylamino)-5-nitro-benzoic acid phenacyl ester]	31.1
O=C(O)c1cc([N+](=O)[O-])ccc1NCc1ccccc1 [2-(benzylamino)-5-nitro-benzoic acid]	1490
CCc1ccc(OCCNC(=O)c2ccccc2SCc2ccccc2)cc1 [2-(benzylthio)-N-[2-(4-ethylphenoxy)ethyl]benzamide]	35.2
NC(=O)COc1ccccc1/C=C1/SC(=O)N(CC(=O)N2CCc3ccccc3C2)C1=O [2-[2-({3-[2-(3,4-dihydro-2(1H)-isoquinolinyl)-2-oxoethyl]-2,4-dioxo-1,3-thiazolidin-5-ylidene}methyl)phenoxy]acetamide]	10800
O=[N+]([O-])c1cc(-n2c(O)c3c(c2O)CCCC3)ccc1NC1CCN(Cc2ccccc2)CC1 [2-[3-nitro-4-[[1-(phenylmethyl)-4-piperidinyl]amino]phenyl]-3a,4,5,6,7,7a-hexahydroisoindole-1,3-dione]	28.1
Cc1cccc(OCc2nnc(SCC(=O)c3cccs3)n2C)c1C [2-[5-(2,3-Dimethyl-phenoxymethyl)-4-methyl-4H-[1,2,4]triazol-3-ylsulfanyl]-1-thiophen-2-yl-ethanone]	9.24

Other lines, results leading:

EC50 [µM]	SMILES
9.24	Fc1cccc(F)c1C=NNC(=S)Nc1cccnc1 [1-[(2,6-difluorobenzylidene)amino]-3-(3-pyridyl)thiourea]
8.18	Cc1cc(C)c(C#N)c(N2CCN(Cc3ccccc3)CC2)n1 [2-(4-benzyl-1-piperazinyl)-4,6-dimethylnicotinonitrile]
7.98	NC(=S)NN=C1C(=O)N(Cc2ccc(F)cc2)c2ccccc21 [1-[(Z)-[1-[(4-fluorophenyl)methyl]-2-oxidanylidene-indol-3-ylidene]amino]thiourea]
7.74	Cc1ccc(C)c(C(=O)NC(C)CCc2ccccc2)c1 (configuration not stated) [2,5-dimethyl-N-(1-methyl-3-phenyl-propyl)benzamide]
7.58	Cc1ccc(-c2noc(CN3CCN(Cc4ccccc4)CC3)n2)cc1 [1-benzyl-4-{[3-(4-methylphenyl)-1,2,4-oxadiazol-5-yl]methyl}piperazine]
6.08	Cn1nccc1C(=O)OCC(=O)Nc1nc(-c2ccccc2)cs1 [2-Methyl-2H-pyrazole-3-carboxylic acid (4-phenyl-thiazol-2-ylcarbamoyl)-methyl ester]
5.32	O=C(CSc1nnc(-c2ccc(F)cc2)o1)N1CCN(C(=O)c2ccco2)CC1 [2-[5-(4-Fluoro-phenyl)-[1,3,4]oxadiazol-2-ylsulfanyl]-1-[4-(furan-2-carbonyl)-piperazin-1-yl]-ethanone]
4.98	COc1ccc(S(=O)(=O)N2CCC(C(=O)N3CCc4ccccc4C3)CC2)cc1C [2-({1-[(4-methoxy-3-methylphenyl)sulfonyl]-4-piperidinyl}carbonyl)-1,2,3,4-tetrahydroisoquinoline]
4.49	C=CCNc1oc(Cc2cccc3ccccc23)nc1C#N [2-(1-naphthalenylmethyl)-5-(prop-2-enylamino)-4-oxazolecarbonitrile]
4.2	O=C1Nc2ccc([N+](=O)[O-])cc2OC1CCN1CCN(Cc2ccccc2)CC1 (configuration not stated) [2-[2-(4-benzylpiperazin-1-yl)ethyl]-7-nitro-4H-1,4-benzoxazin-3-one]
3.74	CCn1nnnc1SCC(=O)Nc1nc(-c2cccs2)cs1 [2-(1-Ethyl-1H-tetrazol-5-ylsulfanyl)-N-(4-thiophen-2-yl-thiazol-2-yl)-acetamide]
3.54	CCc1ccc(Nc2nnc(SCC(=O)Nc3sccc3C(N)=O)s2)cc1 [2-[2-[[5-[(4-ethylphenyl)amino]-1,3,4-thiadiazol-2-yl]sulfanyl]ethanoylamino]thiophene-3-carboxamide]
2.55	O=C(c1ccc(S(=O)(=O)c2cccc(Cl)c2)c([N+](=O)[O-])c1)N1CCN(c2ccccn2)CC1 [1-{4-[(3-chlorophenyl)sulfonyl]-3-nitrobenzoyl}-4-pyridin-2-ylpiperazine]
2.52	O=C(Cn1cnc2c(nnn2-c2ccccc2)c1=O)NCCc1ccccc1 [2-(7-keto-3-phenyl-triazolo[4,5-d]pyrimidin-6-yl)-N-phenethyl-acetamide]
2.06	O=[N+]([O-])c1ccc(CSc2nnc(SCc3ccccc3)s2)cc1 [2-(benzylthio)-5-[(4-nitrobenzyl)thio]-1,3,4-thiadiazole]
1.94	O=C(Cn1nc(-c2ccccc2)ccc1=O)NCc1ccc2c(c1)OCO2 [2-(6-keto-3-phenyl-pyridazin-1-yl)-N-piperonyl-acetamide]
1.65	O=C(CSc1ccccc1C(=O)NCc1ccccc1)NC1CCCCCCC1 [2-[2-(cyclooctylamino)-2-oxidanylidene-ethyl]sulfanyl-N-(phenylmethyl)benzamide]
1.48	O=C(Cn1cnc2c(nnn2Cc2ccc(F)cc2)c1=O)NCc1ccc2c(c1)OCO2 [2-[3-(4-fluorobenzyl)-7-keto-triazolo[4,5-d]pyrimidin-6-yl]-N-piperonyl-acetamide]
1.42	O=C(CSc1nnnn1-c1ccc(Cl)cc1)N1CCc2ccccc2C1 [2-[1-(4-chlorophenyl)tetrazol-5-yl]sulfanyl-1-(3,4-dihydro-1H-isoquinolin-2-yl)ethanone]
1.06	O=C(CSc1ccc(-c2ccccc2)nn1)c1ccccc1 [1-phenyl-2-(6-phenylpyridazin-3-yl)sulfanyl-ethanone]
0.481	O=C(COC(=O)c1cc([N+](=O)[O-])ccc1NCc1ccccc1)NC1CCCCC1 [2-(benzylamino)-5-nitro-benzoic acid [2-(cyclohexylamino)-2-keto-ethyl] ester]
0.156	O=C(CN1C(=O)NC2(CCCC2)C1=O)Nc1nc(-c2ccc(F)cc2)cs1 [2-(2,4-diketo-1,3-diazaspiro[4.4]nonan-3-yl)-N-[4-(4-fluorophenyl)thiazol-2-yl]acetamide]

Same assay, conditions: inactive by the depositor's call

EC50 [µM]	SMILES
459	O=C(COc1ccc2ccccc2c1Br)Nn1cnnc1 [2-(1-bromanylnaphthalen-2-yl)oxy-N-(1,2,4-triazol-4-yl)ethanamide]
1890	O=C(CSC1=NCCS1)Nc1nc(-c2ccccc2)cs1 [2-(4,5-dihydro-1,3-thiazol-2-ylsulfanyl)-N-(4-phenyl-1,3-thiazol-2-yl)acetamide]
8.64	Cc1nc(N2CCN(Cc3ccccc3)CC2)nc2c1C(=O)CCC2 [2-(4-benzylpiperazin-1-yl)-4-methyl-7,8-dihydro-6H-quinazolin-5-one]
2.87	Cc1ccc(N(CC(=O)NCCSc2ccccn2)S(=O)(=O)c2ccc(F)cc2)cc1 [2-(N-(4-fluorophenyl)sulfonyl-4-methyl-anilino)-N-[2-(2-pyridylthio)ethyl]acetamide]
82.6	COn1c(SC2CCCCC2)nc2ccccc2c1=O [2-(cyclohexylthio)-3-methoxy-4-quinazolinone]
38.3	CCc1ccc(-c2nc(C[S+]([O-])CC(=O)NCc3cccnc3)c(C)o2)cc1 (configuration not stated) [2-({[2-(4-ethylphenyl)-5-methyl-1,3-oxazol-4-yl]methyl}sulfinyl)-N-(pyridin-3-ylmethyl)acetamide]
8.27	O=C(Cn1nc(-c2ccccc2F)ccc1=O)NCc1ccc2c(c1)OCO2 [2-[3-(2-fluorophenyl)-6-keto-pyridazin-1-yl]-N-piperonyl-acetamide]
46.4	CC(C)CC(c1nnnn1Cc1cccs1)N1CCN(c2nc3ccccc3s2)CC1 (configuration not stated) [2-[4-[3-methyl-1-[1-(2-thenyl)tetrazol-5-yl]butyl]piperazino]-1,3-benzothiazole]

SMILES	EC50 [µM]
COc1ccc(-c2nnc(-c3ccc(OCC(C)C)cc3)o2)cc1 [2-(4-Isobutoxy-phenyl)-5-(4-methoxy-phenyl)-[1,3,4]oxadiazole]	0.00127
